From patent US20010041346A1, “METHOD FOR ASSAYING COMPOUNDS AFFECTING SMOOTH MUSCLE CONTRACTILE STATE” (priority 1999, published 2001)
Values belong to the molecule of their own block, whether it stands above or below them.

Experiments:
[1] = tested on: PP1M; experiment: Phosphatase assay in anti-MBS immunopellets; format: biochemical, human
[2] = tested on: myosin light chain phosphorylation in rat aortic smooth muscle cells; experiment: Agonist-stimulated myosin light chain phosphorylation in intact vascular smooth muscle cells; format: cell-based; conditions: n=3
Description: The extent of agonist-stimulated myosin light chain phosphorylation was quantified in intact vascular smooth muscle cells transfected with either vector alone or a plasmid expressing the cGK1α leucine/isoleucine zipper domain (CGK1-59), to examine the effects of disrupting the cGK1α-MBS interaction on cGMP-mediated inhibition of myosin light chain phosphorylation. cGK1α1-59 was cloned into the mammalian expression vector pCI (Promega, Madison, Wis.). Rat aortic smooth muscle cells of passage 6 through 10 were transfected with either vector alone (pCI) or cDNA for the leucine/isoleucine zipper peptide from cGK (cGK1α1-59pCI) by electroporation. Cells were arrested in DME supplemented with insulin, ascorbic acid and transferrin, then stimulated with 2 μM of the thromboxane analogue U46619 for 1 minute in the absence or presence of 20 minute pretreatment with 1 mM 8-Br-cGMP. Following treatment, cells were precipitated with trichloroacetic acid, washed with acetone, and protein was subjected to glycerol-urea electrophoresis (Taylor et al., J. Biol Chem. 263, 14456, 1988). Myosin light chain phosphorylation state was quantified by immunoblotting the unphosphorylated and phosphorylated forms of myosin light chain with monoclonal antimyosin light chain antibody (Sigma, clone MY-21). Protein bands were analyzed by densitometry. Statistical analysis was performed using Student-Newman-Keuls method. Data represent the means+/−standard error of three separate experiments in duplicate.

[3] = biological target: T1, PP1M phosphatase activity (Homo sapiens, UniProt P62140); experiment: Phosphatase assay in cGKIα immunopellets; format: biochemical
T1 construct: cGKIα was immunoprecipitated and phosphatase activity was assayed in the immunopellets as described herein; endogenous in cells; host or cells: human saphenous vein smooth muscle cells
T1 sequence (P62140 whole entry, one chain of several): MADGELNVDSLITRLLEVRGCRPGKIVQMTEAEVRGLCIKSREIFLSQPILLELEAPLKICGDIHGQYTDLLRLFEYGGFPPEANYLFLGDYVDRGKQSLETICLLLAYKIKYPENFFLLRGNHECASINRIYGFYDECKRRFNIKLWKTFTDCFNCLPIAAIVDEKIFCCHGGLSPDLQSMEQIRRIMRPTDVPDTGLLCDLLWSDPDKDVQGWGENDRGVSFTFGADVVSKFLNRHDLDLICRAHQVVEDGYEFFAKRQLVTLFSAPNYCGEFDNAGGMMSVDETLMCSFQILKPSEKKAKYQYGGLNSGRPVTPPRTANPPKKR
T1 sequence (O14974 whole entry partner, one chain of several): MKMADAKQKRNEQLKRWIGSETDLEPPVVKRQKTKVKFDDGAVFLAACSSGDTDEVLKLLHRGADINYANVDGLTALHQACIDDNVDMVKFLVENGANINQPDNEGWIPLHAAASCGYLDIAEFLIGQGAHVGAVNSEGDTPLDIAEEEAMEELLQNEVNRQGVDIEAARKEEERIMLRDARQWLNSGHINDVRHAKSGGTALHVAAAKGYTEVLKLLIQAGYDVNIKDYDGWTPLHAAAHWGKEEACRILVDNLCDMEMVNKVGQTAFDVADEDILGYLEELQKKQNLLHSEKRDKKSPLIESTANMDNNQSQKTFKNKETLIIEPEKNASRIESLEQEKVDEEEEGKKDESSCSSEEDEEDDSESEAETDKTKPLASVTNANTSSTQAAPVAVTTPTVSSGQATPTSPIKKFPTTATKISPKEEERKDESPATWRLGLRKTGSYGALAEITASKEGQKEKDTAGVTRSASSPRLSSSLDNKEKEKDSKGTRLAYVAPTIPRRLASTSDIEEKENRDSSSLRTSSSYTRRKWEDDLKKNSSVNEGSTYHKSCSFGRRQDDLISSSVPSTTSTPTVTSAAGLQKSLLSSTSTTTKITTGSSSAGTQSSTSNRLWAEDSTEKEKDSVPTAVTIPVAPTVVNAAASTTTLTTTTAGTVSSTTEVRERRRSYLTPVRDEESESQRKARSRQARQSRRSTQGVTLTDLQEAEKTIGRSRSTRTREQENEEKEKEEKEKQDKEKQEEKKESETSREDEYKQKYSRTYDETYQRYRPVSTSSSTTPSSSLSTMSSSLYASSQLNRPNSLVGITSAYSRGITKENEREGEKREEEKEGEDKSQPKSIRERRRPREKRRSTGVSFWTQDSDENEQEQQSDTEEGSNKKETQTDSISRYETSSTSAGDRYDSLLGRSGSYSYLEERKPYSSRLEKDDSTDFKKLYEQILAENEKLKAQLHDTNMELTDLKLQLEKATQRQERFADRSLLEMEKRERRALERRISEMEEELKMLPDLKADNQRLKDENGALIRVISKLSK
Procedure: Immunopellets, prepared as described herein, were washed and resuspended in phosphatase assay buffer A (20 mM MOPS, 20 mM glucose, 1 mM dithiothreitol, 1 mM theophylline, 1 mg/ml BSA, and 5 mM azide, pH 7.5). ^32P-labeled phosphorylase a (final concentration 10 μM; Dr. D. Brautigan, University of Virginia, Va.) in either buffer A alone, buffer A with 10 mM 8-bromo-cGMP, buffer A with 2 nM okadaic acid, or buffer A with 1 μM okadaic acid was added to the immunopellets. The reactions were incubated at 30° C. for 30 minutes and terminated with trichloroacetic acid. In separate experiments, ^32P-myosin light chains were used as substrate in place of phosphorylase a.
PP1M phosphatase activity in the cGKIα immunoprecipitates was measured against two known PP1M substrates, myosin light chain and phosphorylase a. cGKIα was immunoprecipitated and phosphatase activity was assayed in the immunopellets as described herein.

[4] = biological target: T2, cGK from human saphenous vein smooth muscle cell lysates (Homo sapiens, UniProt Q13976); experiment: GST-fusion protein binding, immunoblot for cGK; conditions: GST pulldown, immunoblotting with anti-cGK antibody
T2 construct: from tissue; host or cells: frozen human saphenous vein, homogenized
T2 sequence (Q13976 1-671): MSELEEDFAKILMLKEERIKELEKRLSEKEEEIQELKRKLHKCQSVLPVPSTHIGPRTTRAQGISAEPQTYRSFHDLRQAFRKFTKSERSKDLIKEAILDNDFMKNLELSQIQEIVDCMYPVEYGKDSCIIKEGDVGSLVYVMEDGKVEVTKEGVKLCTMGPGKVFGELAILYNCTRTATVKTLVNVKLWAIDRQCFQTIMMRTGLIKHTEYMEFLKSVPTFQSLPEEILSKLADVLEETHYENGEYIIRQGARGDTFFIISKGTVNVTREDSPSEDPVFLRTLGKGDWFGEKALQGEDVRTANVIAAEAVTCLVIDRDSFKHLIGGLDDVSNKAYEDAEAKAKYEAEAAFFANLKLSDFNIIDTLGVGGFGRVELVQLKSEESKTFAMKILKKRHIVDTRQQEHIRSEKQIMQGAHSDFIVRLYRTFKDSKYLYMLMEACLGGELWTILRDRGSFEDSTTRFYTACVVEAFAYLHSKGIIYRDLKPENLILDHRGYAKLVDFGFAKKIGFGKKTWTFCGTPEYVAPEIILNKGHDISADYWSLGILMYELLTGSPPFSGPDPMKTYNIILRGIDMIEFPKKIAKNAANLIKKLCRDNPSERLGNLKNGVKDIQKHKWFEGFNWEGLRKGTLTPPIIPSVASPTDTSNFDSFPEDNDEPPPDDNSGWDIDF
Procedure: Lysates were centrifuged for 15 minutes at 4° C. in a microfuge, and the supernatant was incubated with 100 μl of GST or GST-fusion protein beads overnight, followed by washing in RIPA buffer containing 1% NP40, and boiling for 5 minutes in SDS sample buffer. Associated proteins were resolved by SDS-PAGE and transferred to nitrocellulose, which was blocked in PBS with 0.05% Tween 20 and 5% milk. Primary antibody incubation with rabbit polyclonal anti-human cGPK-CT (Upstate Biotechnology, Lake Placid, N.Y.) was carried out at 1:2000 dilution and rabbit polyclonal anti-MBS antibody (Berkeley Antibody Company, Richmond, Calif.) at 1:1600 dilution in blocking buffer for one hour at room temperature, followed by secondary antibody incubation with anti-rabbit horseradish peroxidase-conjugated IgG (Amersham Life Science, Arlington Heights, Ill.) at 1:500 in blocking buffer. The membranes were developed with ECL (Amersham Life Science, Arlington Heights, Ill.).
The 586 base pair cDNA insert from AL9, the 177 base pair N-terminal cGK1α truncation mutant, cGK1α1-59, the N-terminal 274 base pairs of cGKIβ, and the N-terminal 816 base pairs of cGKII were cloned into pGEX (Pharmacia Biotech, Piscataway, N.J.). GST fusion proteins were expressed in bacterial strain BL21 (Stratagene, La Jolla, Calif.) according to standard techniques. […]

Molecule: CCCCC[C@H](O)/C=C/[C@@H]1[C@@H](C/C=C\CCCC(=O)O)[C@H]2CO[C@@H]1C2 [U46619]
myosin light chain phosphorylation ([2]; 2 μM U46619 for 1 minute, baseline 10+/−2%, vector control and cGK1-59-transfected cells): 68+/−2%

Molecule: C=C1[C@@H](O)[C@@H]2O[C@]3(CC[C@H](/C=C/[C@@H](C)[C@@H]4CC(C)=C[C@@]5(O[C@H](C[C@@](C)(O)C(=O)O)CC[C@H]5O)O4)O3)CC[C@H]2O[C@@H]1[C@@H](O)C[C@H](C)[C@H]1O[C@@]2(CCCCO2)CC[C@H]1C [okadaic acid]
inhibition at 0.002 µM ([3]; 2 nM okadaic acid, n=3, P=NS): 12%
inhibition at 1 µM ([3]; 1 μM okadaic acid, n=3, p<0.001 vs. untreated): 79%

Now from value to molecule, other results behind:

increase of PP1 phosphatase activity in the MBS immunopellet ([1]; 8-bromo-cGMP added to anti-MBS immunopellets, n=5): 32+/−13%
Molecule: Nc1nc2c(nc(Br)n2[C@@H]2O[C@@H]3COP(=O)(O)O[C@H]3[C@H]2O)c(=O)[nH]1 [8-bromo-cGMP]
inhibition of U46619-stimulated myosin light chain phosphorylation ([2]; cells expressing cGK1-59, 20 minute pretreatment with 1 mM 8-Br-cGMP): 35%
inhibition of U46619-mediated myosin light chain phosphorylation ([2]; control-transfected cells, 20 minute pretreatment with 1 mM 8-Br-cGMP): 79+/−17%

effect on activation of PP1M by 8-bromo-cGMP ([1]; preincubation of the complex with the inhibitor, two separate experiments): prevented
Molecule: Nc1nc2c(nc(Sc3ccc(Cl)cc3)n2[C@@H]2O[C@@H]3CO[P@@](=O)(S)O[C@H]3[C@H]2O)c(=O)[nH]1 [Rp-8-pCPT-cGMPS]

binding of cGK from smooth muscle cell lysates [4]: no interaction with cGK
B1: MBS1-690: 690 amino acid N-terminal half of MBS (protein, UniProt O14974 1-690, looked up, fragment)
chain: MKMADAKQKRNEQLKRWIGSETDLEPPVVKRQKTKVKFDDGAVFLAACSSGDTDEVLKLLHRGADINYANVDGLTALHQACIDDNVDMVKFLVENGANINQPDNEGWIPLHAAASCGYLDIAEFLIGQGAHVGAVNSEGDTPLDIAEEEAMEELLQNEVNRQGVDIEAARKEEERIMLRDARQWLNSGHINDVRHAKSGGTALHVAAAKGYTEVLKLLIQAGYDVNIKDYDGWTPLHAAAHWGKEEACRILVDNLCDMEMVNKVGQTAFDVADEDILGYLEELQKKQNLLHSEKRDKKSPLIESTANMDNNQSQKTFKNKETLIIEPEKNASRIESLEQEKVDEEEEGKKDESSCSSEEDEEDDSESEAETDKTKPLASVTNANTSSTQAAPVAVTTPTVSSGQATPTSPIKKFPTTATKISPKEEERKDESPATWRLGLRKTGSYGALAEITASKEGQKEKDTAGVTRSASSPRLSSSLDNKEKEKDSKGTRLAYVAPTIPRRLASTSDIEEKENRDSSSLRTSSSYTRRKWEDDLKKNSSVNEGSTYHKSCSFGRRQDDLISSSVPSTTSTPTVTSAAGLQKSLLSSTSTTTKITTGSSSAGTQSSTSNRLWAEDSTEKEKDSVPTAVTIPVAPTVVNAAASTTTLTTTTAGTVSSTTEVRERRRSYLTPVRDEESESQRKARSRQAR
